Experimental data as given in PubChem BioAssay (NCI).
Several values for one entry are separate records, joined by “and”; a condition that tells them apart may be missing. Equal values may be shown once.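 These data come from cells grown in 96-well plates and exposed to compound for 48 hours at five concentrations. Here, GI50 denotes the concentration required for 50% inhibition of growth. TGI marks complete inhibition of growth.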

Legend:
Test in all cases: DTP human tumour cell line panel, 48 h
[1] = system: 786-0 renal
[2] = system: A498 renal
[3] = system: A549 NSCLC
[4] = system: ACHN renal
[5] = system: BT-549 breast
[6] = system: CAKI-1 renal
[7] = system: CCRF-CEM leukemia
[8] = system: COLO 205 colon
[9] = system: DLD-1 colon
[10] = system: DMS 114 small cell lung
[11] = system: DMS 273 small cell lung
[12] = system: DU-145 prostate
[13] = system: EKVX NSCLC
[14] = system: HCC-2998 colon
[15] = system: HCT-116 colon
[16] = system: HCT-15 colon
[17] = system: HL-60(TB) leukemia
[18] = system: HOP-62 NSCLC
[19] = system: HOP-92 NSCLC
[20] = system: HS 578T breast
[21] = system: HT29 colon
[22] = system: IGROV1 ovarian
[23] = system: K-562 leukemia
[24] = system: KM12 colon
[25] = system: KM20L2 colon
[26] = system: LOX IMVI melanoma
[27] = system: LXFL 529 NSCLC
[28] = system: M14 melanoma
[29] = system: M19-MEL melanoma
[30] = system: MALME-3M melanoma
[31] = system: MCF7 breast
[32] = system: MDA-MB-231 breast
[33] = system: MDA-MB-435
[34] = system: MDA-N
[35] = system: MOLT-4 leukemia
[36] = system: NCI-H226 lung
[37] = system: NCI-H23 lung
[38] = system: NCI-H460 lung
[39] = system: NCI-H522 lung
[40] = system: NCI/ADR-RES ovarian
[41] = system: OVCAR-3 ovarian
[42] = system: OVCAR-4 ovarian
[43] = system: OVCAR-5 ovarian
[44] = system: OVCAR-8 ovarian
[45] = system: PC-3 prostate
[46] = system: RPMI-8226 leukemia
[47] = system: RXF 393 renal
[48] = system: SF-268 CNS
[49] = system: SF-295 CNS
[50] = system: SF-539 CNS
[51] = system: SK-MEL-2 melanoma
[52] = system: SK-MEL-28 melanoma
[53] = system: SK-MEL-5 melanoma
[54] = system: SK-OV-3 ovarian
[55] = system: SN12C renal
[56] = system: SNB-19 CNS
[57] = system: SNB-75 CNS
[58] = system: SNB-78 CNS
[59] = system: SR leukemia
[60] = system: SW-620 colon
[61] = system: T-47D breast
[62] = system: TK-10 renal
[63] = system: U251 CNS
[64] = system: UACC-257 melanoma
[65] = system: UACC-62 melanoma
[66] = system: UO-31 renal
[67] = system: XF 498 CNS
[68] = system: HOP-18 NSCLC

## O=C1C=CC(=O)c2c1c1c(c3c2C2c4ccccc4C3c3ccccc32)C2c3ccccc3C1c1ccccc12
[1]
  TGI: 2.99 µM and 2.88 µM
[2]
  TGI: 11.1 µM
[3]
  GI50: 3.08 µM
  TGI: 21.9 µM
[4]
  GI50: 1.96 µM
  TGI: 3.43 µM and 3.16 µM
[5]
  TGI: 13.7 µM
[6]
  GI50: 1.5 µM
  TGI: 2.83 µM and 3.25 µM
[7]
  GI50: 0.451 µM
  TGI: 2.93 µM
[8]
  GI50: 1.67 µM
  TGI: 3.66 µM and 2.86 µM
[9]
  TGI: 2.3 µM
[10]
  TGI: 4.41 µM
[11]
  TGI: 4.08 µM
[12]
  TGI: 28.4 µM
[13]
  GI50: 6.11 µM
  TGI: 8.53 µM
[14]
  GI50: 4.91 µM
  TGI: 17.4 µM
[15]
  TGI: 2.85 µM and 2.91 µM
[16]
  GI50: 1.22 µM
  TGI: 2.77 µM and 2.95 µM
[17]
  GI50: 0.657 µM
  TGI: 4.1 µM and 4.85 µM
[18]
  GI50: 6.47 µM
  TGI: 35.1 µM
[19]
  GI50: 1.65 µM
  TGI: 3.08 µM and 2.47 µM
[20]
  GI50: 2.38 µM
  TGI: 6.24 µM
[21]
  GI50: 1.64 µM
  TGI: 4.19 µM and 4.29 µM
[22]
  GI50: 2.08 µM
  TGI: 4.58 µM and 14.7 µM
[23]
  GI50: 0.552 µM
  TGI: 3.94 µM and 10.7 µM
[24]
  GI50: 2.49 µM
  TGI: 25.5 µM
[25]
  TGI: 15.2 µM
[26]
  TGI: 2.91 µM and 3.08 µM
[27]
  TGI: 2.27 µM
[28]
  TGI: 3.29 µM and 3.12 µM
[29]
  TGI: 3.6 µM
[30]
  TGI: 3.07 µM and 3.05 µM
[31]
  GI50: 2.58 µM
  TGI: 3.29 µM and 7.55 µM
[32]
  GI50: 2.02 µM
  TGI: 4.09 µM
[33]
  TGI: 3.34 µM and 3.35 µM
[34]
  TGI: 2.91 µM and 3.01 µM
[35]
  GI50: 0.393 µM
  TGI: > 54.5 µM
[36]
  GI50: 1.57 µM
  TGI: 3.02 µM and 11.1 µM
[37]
  GI50: 1.81 µM
  TGI: 4.36 µM and 6.61 µM
[38]
  GI50: 3.85 µM
  TGI: 26.8 µM
[39]
  GI50: 0.254 µM
  TGI: 0.775 µM and 1.42 µM
[40]
  GI50: 2.64 µM
  TGI: 6.2 µM
[41]
  TGI: 3.3 µM
[42]
  TGI: 3.92 µM
[43]
  TGI: 16.3 µM
[44]
  GI50: 2.78 µM
  TGI: 2.94 µM
[45]
  GI50: 9.64 µM
  TGI: 3.37 µM and 21.6 µM
[46]
  GI50: 0.479 µM
  TGI: > 22.1 µM
[47]
  GI50: 2.33 µM
  TGI: 3.86 µM and 3 µM
[48]
  TGI: 16.5 µM
[49]
  GI50: 3.21 µM
  TGI: 30.4 µM
[50]
  TGI: 11.5 µM
[51]
  TGI: 4.25 µM
[52]
  TGI: 2.83 µM
[53]
  GI50: 1.52 µM
  TGI: 3.11 µM and 6.21 µM
[54]
  TGI: 28.6 µM
[55]
  GI50: 1.43 µM
  TGI: 3 µM and 7.45 µM
[56]
  GI50: 3.62 µM
  TGI: 34.4 µM
[57]
  TGI: 24.4 µM
[58]
  TGI: 3.57 µM
[59]
  GI50: 0.386 µM
  TGI: > 43.4 µM
[60]
  GI50: 0.588 µM
  TGI: 4.82 µM and 2.16 µM
[61]
  GI50: 2 µM
  TGI: 3.25 µM and 3.49 µM
[62]
  TGI: 3.31 µM and 3.4 µM
[63]
  GI50: 4.05 µM
  TGI: 20.5 µM
[64]
  TGI: 3.58 µM
[65]
  GI50: 1.74 µM
  TGI: 4.37 µM and 4.7 µM
[66]
  GI50: 1.62 µM
  TGI: 3.09 µM and 4.32 µM
[67]
  TGI: 3.34 µM

## O=c1c(O)c(O)c1=O.[NH2-].[NH2-].[NH2-].[NH2-].[NH2-].[Ru+5]
[1]
  GI50: > 100 µM
  TGI: > 100 µM
[2]
  GI50: > 100 µM
  TGI: > 100 µM
[3]
  GI50: > 100 µM
  TGI: > 100 µM
[4]
  GI50: > 100 µM
  TGI: > 100 µM
[6]
  GI50: > 100 µM
  TGI: > 100 µM
[7]
  GI50: > 100 µM
  TGI: > 100 µM
[8]
  GI50: > 100 µM
  TGI: > 100 µM
[9]
  GI50: > 100 µM
  TGI: > 100 µM
[11]
  GI50: > 100 µM
  TGI: > 100 µM
[13]
  GI50: > 100 µM
  TGI: > 100 µM
[14]
  GI50: > 100 µM
  TGI: > 100 µM
[15]
  GI50: > 100 µM
  TGI: > 100 µM
[16]
  GI50: > 100 µM
  TGI: > 100 µM
[68]
  GI50: > 100 µM
  TGI: > 100 µM
[19]
  GI50: > 100 µM
  TGI: > 100 µM
[21]
  GI50: > 100 µM
  TGI: > 100 µM
[22]
  GI50: > 100 µM
  TGI: > 100 µM
[23]
  GI50: > 100 µM
  TGI: > 100 µM
[24]
  GI50: > 100 µM
  TGI: > 100 µM
[25]
  GI50: > 100 µM
  TGI: > 100 µM
[26]
  GI50: > 100 µM
  TGI: > 100 µM
[27]
  GI50: > 100 µM
  TGI: > 100 µM
[28]
  GI50: > 100 µM
  TGI: > 100 µM
[30]
  GI50: > 100 µM
  TGI: > 100 µM
[36]
  GI50: > 100 µM
  TGI: > 100 µM
[37]
  GI50: > 100 µM
  TGI: > 100 µM
[38]
  GI50: > 100 µM
  TGI: > 100 µM
[39]
  GI50: > 100 µM
  TGI: > 100 µM
[42]
  GI50: > 100 µM
  TGI: > 100 µM
[43]
  GI50: > 100 µM
  TGI: > 100 µM
[44]
  GI50: > 100 µM
  TGI: > 100 µM
[46]
  GI50: > 100 µM
  TGI: > 100 µM
[47]
  GI50: > 100 µM
  TGI: > 100 µM
[48]
  GI50: > 100 µM
  TGI: > 100 µM
[51]
  GI50: > 100 µM
  TGI: > 100 µM
[52]
  GI50: > 100 µM
  TGI: > 100 µM
[54]
  GI50: > 100 µM
  TGI: > 100 µM
[55]
  GI50: > 100 µM
  TGI: > 100 µM
[56]
  GI50: > 100 µM
  TGI: > 100 µM
[57]
  GI50: > 100 µM
  TGI: > 100 µM
[58]
  GI50: > 100 µM
  TGI: > 100 µM
[60]
  GI50: > 100 µM
  TGI: > 100 µM
[62]
  GI50: > 100 µM
  TGI: > 100 µM
[63]
  GI50: > 100 µM
  TGI: > 100 µM
[64]
  GI50: > 100 µM
  TGI: > 100 µM
[65]
  GI50: > 100 µM
  TGI: > 100 µM
[66]
  GI50: > 100 µM
  TGI: > 100 µM

## COc1cc(/C=N/N=C(\N)NO)cc(Cl)c1O
[1]
  TGI: > 100 µM
[2]
  TGI: > 100 µM
[3]
  TGI: > 100 µM
[4]
  TGI: > 100 µM
[6]
  TGI: > 100 µM
[7]
  TGI: > 100 µM
[8]
  TGI: > 100 µM
[9]
  TGI: > 100 µM
[10]
  TGI: > 100 µM
[13]
  TGI: > 100 µM
[14]
  TGI: > 100 µM
[15]
  TGI: > 100 µM
[16]
  TGI: > 100 µM
[68]
  TGI: 88.5 µM
[18]
  TGI: > 100 µM
[19]
  TGI: > 100 µM
[21]
  TGI: > 100 µM
[22]
  TGI: > 100 µM
[23]
  TGI: > 100 µM
[24]
  TGI: > 100 µM
[26]
  TGI: > 100 µM
[27]
  TGI: > 100 µM
[28]
  TGI: > 100 µM
[29]
  TGI: > 100 µM
[30]
  TGI: > 100 µM
[35]
  TGI: > 100 µM
[36]
  TGI: 81.6 µM
[37]
  TGI: > 100 µM
[38]
  TGI: > 100 µM
[39]
  TGI: > 100 µM
[41]
  TGI: > 100 µM
[42]
  TGI: > 100 µM
[43]
  TGI: > 100 µM
[44]
  TGI: > 100 µM
[46]
  TGI: > 100 µM
[47]
  TGI: 61.7 µM
[48]
  TGI: > 100 µM
[49]
  TGI: > 100 µM
[50]
  TGI: > 100 µM
[51]
  TGI: > 100 µM
[52]
  TGI: > 100 µM
[53]
  TGI: > 100 µM
[54]
  TGI: > 100 µM
[55]
  TGI: > 100 µM
[56]
  TGI: > 100 µM
[58]
  TGI: > 100 µM
[59]
  TGI: > 100 µM
[60]
  TGI: > 100 µM
[63]
  TGI: > 100 µM
[64]
  TGI: > 100 µM
[65]
  TGI: > 100 µM
[66]
  TGI: > 100 µM
